Key:
HeLa nuclear HDACs = experiment: HDAC fluorometric activity assay, HeLa nuclear extract; conditions: read-out: IC50 HeLa Nuclear HDACs; Boc-Lys(Ac)-AMC 10 μM
HDAC7 = target: T1, HDAC7 (Homo sapiens, UniProt Q8WUI4); experiment: HDAC fluorometric activity assay, HDAC7; conditions: IC50 Class IIa HDAC7, fluorogenic HDAC class IIa substrate 10 μM
T1 sequence (Q8WUI4 1-952): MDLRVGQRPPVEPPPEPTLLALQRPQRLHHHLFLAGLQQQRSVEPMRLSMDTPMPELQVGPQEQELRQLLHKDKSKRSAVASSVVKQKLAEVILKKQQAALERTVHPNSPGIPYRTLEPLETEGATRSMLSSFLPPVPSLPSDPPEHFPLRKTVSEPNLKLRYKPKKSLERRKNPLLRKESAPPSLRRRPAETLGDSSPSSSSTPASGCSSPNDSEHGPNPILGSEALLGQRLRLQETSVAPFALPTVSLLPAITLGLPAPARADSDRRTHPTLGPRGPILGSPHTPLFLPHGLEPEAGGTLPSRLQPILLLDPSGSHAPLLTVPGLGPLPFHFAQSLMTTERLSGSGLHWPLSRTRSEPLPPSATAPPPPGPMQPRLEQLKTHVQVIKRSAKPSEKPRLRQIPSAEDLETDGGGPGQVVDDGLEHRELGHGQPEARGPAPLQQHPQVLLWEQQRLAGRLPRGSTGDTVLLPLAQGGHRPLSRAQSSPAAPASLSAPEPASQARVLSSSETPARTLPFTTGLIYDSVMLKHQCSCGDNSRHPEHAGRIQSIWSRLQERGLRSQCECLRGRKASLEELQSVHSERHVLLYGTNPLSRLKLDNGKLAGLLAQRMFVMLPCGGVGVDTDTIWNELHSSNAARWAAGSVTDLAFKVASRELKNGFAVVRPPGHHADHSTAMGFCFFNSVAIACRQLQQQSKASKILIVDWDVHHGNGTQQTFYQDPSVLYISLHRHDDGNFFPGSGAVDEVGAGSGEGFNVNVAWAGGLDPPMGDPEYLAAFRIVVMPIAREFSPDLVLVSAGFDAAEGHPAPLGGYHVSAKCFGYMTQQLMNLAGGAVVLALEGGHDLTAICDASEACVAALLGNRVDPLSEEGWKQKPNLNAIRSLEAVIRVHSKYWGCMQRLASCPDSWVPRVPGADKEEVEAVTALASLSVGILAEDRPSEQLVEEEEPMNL

Aβ1-42 = target: T2, Aβ1-42 (Homo sapiens, UniProt P05067); experiment: Inhibition of Aβ1-42 self-aggregation, thioflavin-T (ThT) fluorescence assay; format: biochemical; conditions: 24 h; for IC50: read-out: Beta-Amyloid Aggregation IC50; for inhibition at 10 µM: single concentration of 10 μM, read-out: Beta-Amyloid Aggregation Inhibition (%)
T2 construct: Aβ1-42 peptides were purchased from Kelowna International Scientific Inc; purchased Kelowna International Scientific Inc
T2 sequence (P05067 672-713 limits assumed): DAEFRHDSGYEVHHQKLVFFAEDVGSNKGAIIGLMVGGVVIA
Method: Inhibition of Aβ1-42 self-aggregation was measured by thioflavin-T (ThT) fluorescence assay ([Hudson et al., 2009]). Aβ1-42 peptides were purchased from Kelowna International Scientific Inc. To avoid Aβ1-42 self-aggregation before the start of the experiment, Aβ1-42 peptides were dissolved in hexafluoroisopropanol (HFIP) to a concentration of 1 mM. The clear solution containing the dissolved peptide was then aliquoted in micro centrifuge tube. The solution was evaporated under vacuum to remove HFIP to give monomeric Aβ1-42. The monomeric Aβ1-42 was dissolved in NaOH(aq) (60 mM) to give a stock solution (1 mM). The Aβ1-42 stock solution was diluted with 50 mM phosphate buffer (containing 0.15 M NaCl, pH 7.4) before use. Fresh ThT stock solution was prepared by dissolving ThT (Sigma, T3516) in phosphate buffer and filtrated through […] Nylon syringe filter. The ThT stock solution and 400 mM ethylenediaminetetraacetic acid (EDTA) were diluted into the phosphate buffer to generate the working solution as background. A mixture of working solution (ThT final concentration: 10 μM), Aβ1-42 stock solution (Aβ1-42 final concentration: 10 μM) and the tested compounds were incubated on BioShake iQ ThermoMixer (37°C, 700 rpm) for 24 h. Fluorescence was measured by Victor 2X microplate spectrophotometer (excitation λ = 440 nm, emission λ = 486 nm), and adapted for 96-well microtiter plates. The fluorescence intensities were recorded and the percent inhibition due to the presence of the inhibitors were calculated by the following formula: (1 - IFi/IFc) × 100% where IFi and IFc were the fluorescence intensities obtained for Aβ1-42 in the presence and in the absence of inhibitors after subtracting the background, respectively. The IC50 values were calculated by the linear regression model of the data. All experiments were performed in triplicate.

HDAC4 = target: T3, HDAC4 (Homo sapiens, UniProt P56524); experiment: HDAC fluorometric activity assay, HDAC4; format: biochemical; conditions: Boc-Lys(TFA)-AMC 10 μM; read-out: IC50 Class IIa HDAC4
T3 construct: Genes encoding HDAC4 (residues 648–1057) flanked with NdeI and EcoRI sites; made in house; host or cells: E. coli BL21(DE3)
T3 sequence (P56524 648-1057): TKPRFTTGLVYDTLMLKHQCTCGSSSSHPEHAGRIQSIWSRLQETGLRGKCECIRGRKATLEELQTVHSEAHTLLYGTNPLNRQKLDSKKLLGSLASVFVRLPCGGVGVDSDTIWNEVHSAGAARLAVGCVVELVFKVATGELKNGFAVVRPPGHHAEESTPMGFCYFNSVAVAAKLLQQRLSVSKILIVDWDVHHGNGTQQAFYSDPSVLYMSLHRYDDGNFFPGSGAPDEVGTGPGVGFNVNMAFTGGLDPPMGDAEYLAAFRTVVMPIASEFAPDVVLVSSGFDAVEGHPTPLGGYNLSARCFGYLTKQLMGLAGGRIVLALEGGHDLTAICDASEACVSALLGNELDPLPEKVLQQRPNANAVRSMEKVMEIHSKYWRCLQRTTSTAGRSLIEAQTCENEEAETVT
Method: Proteins were expressed in BL21(DE3) cells by overnight induction with IPTG (1 mM) at 20–25°C and purified from cleared cell lysates by sequential chromatography on Ni-Sepharose 6 fast flow, Mono Q 5/50 GL, and Superdex 75 10/300 GL columns (GE Healthcare). Protein concentrations were quantified with Bradford Reagent (Bio-Rad).
Enzyme, inhibitors and substrate were diluted with HDAC buffer (15 mM Tris-HCl pH 8.1, 0.25 mM EDTA, 250 mM NaCl, 10% v:v glycerol). Briefly, 10 μL diluted HDAC, i.e., HeLa nuclear extract (Enzo), HDAC6 (BPS), HDAC4, HDAC5 (BPS), HDAC7 (BPS) and HDAC9 (BPS), as well as 50 μL of testing compounds at different concentrations were added to each well of a 96-well microtiter plate and pre-incubated at 30°C for 5 min. […] The fluorescence in wells without test compounds (0.1% DMSO, negative control) was set as 100% enzymatic activity and the fluorescence in wells with enzyme eliminated was set as 0% enzymatic activity. The fluorescence ratio of test compounds to negative control was defined as percentage of remaining enzyme activity. The IC50 values were calculated by linear regression of the data. All experiments were performed in triplicate.

HDAC9 = HDAC9 (Homo sapiens, UniProt Q9UKV0); experiment: HDAC fluorometric activity assay, HDAC9
Chain of HDAC9 (Q9UKV0 whole entry): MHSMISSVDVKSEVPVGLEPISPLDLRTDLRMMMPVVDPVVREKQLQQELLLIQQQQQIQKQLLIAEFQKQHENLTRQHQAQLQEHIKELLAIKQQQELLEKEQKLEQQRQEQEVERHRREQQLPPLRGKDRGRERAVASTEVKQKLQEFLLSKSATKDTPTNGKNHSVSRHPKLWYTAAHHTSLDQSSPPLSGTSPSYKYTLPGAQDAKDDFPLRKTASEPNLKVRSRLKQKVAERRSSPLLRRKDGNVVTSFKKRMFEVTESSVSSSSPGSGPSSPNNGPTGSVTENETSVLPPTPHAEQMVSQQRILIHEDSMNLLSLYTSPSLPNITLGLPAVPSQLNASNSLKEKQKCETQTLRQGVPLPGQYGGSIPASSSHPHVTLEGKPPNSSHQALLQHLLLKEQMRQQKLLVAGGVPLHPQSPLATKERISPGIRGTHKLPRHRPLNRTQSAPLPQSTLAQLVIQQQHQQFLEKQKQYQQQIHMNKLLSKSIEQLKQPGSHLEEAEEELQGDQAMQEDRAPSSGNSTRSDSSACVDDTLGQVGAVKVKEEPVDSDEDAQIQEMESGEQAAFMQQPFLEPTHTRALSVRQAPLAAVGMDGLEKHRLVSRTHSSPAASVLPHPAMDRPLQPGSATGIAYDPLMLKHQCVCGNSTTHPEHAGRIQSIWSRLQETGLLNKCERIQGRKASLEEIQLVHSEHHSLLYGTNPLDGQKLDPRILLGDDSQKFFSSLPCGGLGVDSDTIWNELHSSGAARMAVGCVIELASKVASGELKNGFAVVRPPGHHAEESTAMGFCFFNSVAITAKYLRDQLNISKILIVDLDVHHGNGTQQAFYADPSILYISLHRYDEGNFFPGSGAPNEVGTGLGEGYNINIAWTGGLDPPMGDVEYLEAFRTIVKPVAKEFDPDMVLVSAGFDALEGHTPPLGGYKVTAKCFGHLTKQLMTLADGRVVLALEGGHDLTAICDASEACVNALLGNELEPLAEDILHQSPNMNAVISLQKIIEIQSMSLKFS

HDAC5 = HDAC5 (Homo sapiens, UniProt Q9UQL6); experiment: HDAC fluorometric activity assay, HDAC5; conditions: IC50 Class IIa HDAC5, fluorogenic HDAC class IIa substrate 10 μM
Chain of HDAC5 (Q9UQL6 whole entry): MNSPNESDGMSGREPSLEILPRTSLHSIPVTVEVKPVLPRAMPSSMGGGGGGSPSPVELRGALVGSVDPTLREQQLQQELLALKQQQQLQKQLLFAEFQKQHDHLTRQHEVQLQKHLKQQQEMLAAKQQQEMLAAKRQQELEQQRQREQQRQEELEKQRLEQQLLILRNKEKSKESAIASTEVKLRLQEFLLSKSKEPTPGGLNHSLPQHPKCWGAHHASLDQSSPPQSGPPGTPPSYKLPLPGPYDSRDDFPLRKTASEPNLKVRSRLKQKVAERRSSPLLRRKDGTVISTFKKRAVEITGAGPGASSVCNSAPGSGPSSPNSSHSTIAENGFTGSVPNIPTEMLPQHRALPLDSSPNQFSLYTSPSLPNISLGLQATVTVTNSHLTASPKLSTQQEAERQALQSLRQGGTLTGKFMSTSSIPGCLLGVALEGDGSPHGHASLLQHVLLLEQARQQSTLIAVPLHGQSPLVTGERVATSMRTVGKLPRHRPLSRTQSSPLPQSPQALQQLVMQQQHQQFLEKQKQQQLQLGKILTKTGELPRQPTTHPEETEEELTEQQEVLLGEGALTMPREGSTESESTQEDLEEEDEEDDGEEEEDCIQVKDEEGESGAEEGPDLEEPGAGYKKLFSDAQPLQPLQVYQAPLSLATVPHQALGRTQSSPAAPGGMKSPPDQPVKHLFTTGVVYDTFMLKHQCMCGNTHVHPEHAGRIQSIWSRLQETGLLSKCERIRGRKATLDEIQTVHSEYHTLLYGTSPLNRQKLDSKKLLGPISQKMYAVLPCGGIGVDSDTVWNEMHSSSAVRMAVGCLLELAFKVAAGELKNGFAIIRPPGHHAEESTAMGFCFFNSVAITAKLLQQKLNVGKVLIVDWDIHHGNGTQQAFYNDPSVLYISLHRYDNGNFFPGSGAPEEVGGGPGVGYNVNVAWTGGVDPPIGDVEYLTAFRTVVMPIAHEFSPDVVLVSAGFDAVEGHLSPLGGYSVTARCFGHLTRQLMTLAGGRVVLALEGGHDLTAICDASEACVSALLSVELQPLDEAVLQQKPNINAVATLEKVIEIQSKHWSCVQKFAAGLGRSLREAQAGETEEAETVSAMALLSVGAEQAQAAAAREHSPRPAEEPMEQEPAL

| SMILES | IC50 (HeLa nuclear HDACs) | IC50 (HDAC7) | IC50 (Aβ1-42) | inhibition at 10 µM (Aβ1-42) | IC50 (HDAC4) | IC50 (HDAC9) | IC50 (HDAC5) |
| --- | --- | --- | --- | --- | --- | --- | --- |
| O=C(/C=C/c1ccc(O)c([N+](=O)[O-])c1)CCCCc1ccccc1 [Compound 4i] | > 40 µM | 32.7 ± 2.1 µM | > 10 µM | 49 ± 2.9% | > 40 µM | > 40 µM | 36.1 ± 3.7 µM |
| COc1cc(/C=C/C(=O)CCCCc2ccccc2)ccc1O [Compound 4k] | > 40 µM | > 40 µM | > 10 µM | 23.1 ± 6.4% | > 40 µM | > 40 µM | > 40 µM |

The next lines start with the values.

| IC50 (HeLa nuclear HDACs) | IC50 (HDAC7) | IC50 (Aβ1-42) | inhibition at 10 µM (Aβ1-42) | IC50 (HDAC4) | IC50 (HDAC9) | IC50 (HDAC5) | SMILES |
| --- | --- | --- | --- | --- | --- | --- | --- |
| > 40 µM | 4.3 ± 0.5 µM | 5.8 ± 0.2 µM | 67.8 ± 3.4% | 18.1 ± 0.8 µM | 5.3 ± 0.3 µM | 3.8 ± 0.1 µM | O=C(CCCCc1ccccc1)CCc1ccc(O)c(O)c1 [Compound 5c] |
| > 40 µM | 8.7 ± 0.7 µM | 6 ± 0.9 µM | 65.9 ± 0.2% | 35.9 ± 0.1 µM | 9.3 ± 0.8 µM | 4.8 ± 0.4 µM | O=C(CCCCc1ccccc1)CCc1cccc(O)c1O [Compound 5e] |
| > 40 µM | > 40 µM | > 10 µM | 30.4 ± 1% | > 40 µM | > 40 µM | > 40 µM | O=C(CCCCc1ccccc1)CCc1ccc(O)cc1 [Compound 5b] |

— PMC6037852, “Design of Diarylheptanoid Derivatives as Dual Inhibitors Against Class IIa Histone Deacetylase and β-amyloid Aggregation” (Frontiers in Pharmacology, 2018)
